Columns and labels:
SNL model in rats = test: Antiallodynic activity on Chung model (SNL, spinal nerve ligation), von Frey test; format: in vivo, Sprague-Dawley rats; conditions: orally
Text: Male Sprague-Dawley rats (100-130 g, Orient Bio, Korea) were habituated for 1 week before the experiment, and allowed free access to food and water throughout the experimentation. Room temperature and humidity were maintained at 24±2 and 50±10%, respectively. The neuropathic surgery (SNL, Spinal nerve ligation) model was done as described in Kim and Chung (1992). Briefly, an animal was put under gaseous anesthesia with isoflurane. The left lumber spinal nerve L5 and L6 were isolated and tightly ligated with 6-0 silk thread. […]
Tactile sensitivity (Mechanical allodynia) was evaluated using von Frey monofilaments before and after treatment, and animals were included in the study only if the withdrawal threshold value was less than 4 g. […] The tactile sensitivity for the ipsilateral hind paw was measured using the up-and-down method (Dixon, 1980) with seven von Frey monofilaments (0.4, 1, 2, 4, 6, 8, and 15 g) in 3 trials. […] The 50% paw withdrawal threshold for each paw was calculated using the following formula: [Xth]log=[vFr]log+ky where [vFr] is the force of the last von Frey used, k=0.2249 which is the average interval (in log units) between the von Frey monofilaments, and y is a value that depends upon the pattern of withdrawal responses (Dixon, 1980). […]

[1] = system: MES (electroshock) seizure in rats; test: Anti-epilepsy activity, MES test in rats; format: in vivo, SD rats; conditions: Rattus norvegicus, po
How it was run: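 Male ICR mice (19–25 g) and male SD rats (100–130 g) dosed orally with compound in 20% Tween 80/saline, then shocked via corneal electrodes at peak time (mice 50 mA, rats 150 mA; 60 Hz, 0.2 sec). Three doses used; ED50 for seizure protection by Litchfield–Wilcoxon log-probit.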

[2] = system: Picrotoxin (PIC)-induced clonic seizure in mice; test: Chemical induced seizure model (PIC); format: in vivo, ICR mice
Experimental: Picrotoxin (PIC) were used to induce the behavioral seizures in the experiments. Male ICR mice (purchased from Orient Bio Inc. Korea) of body weight 19-26 g (mice) were used for these studies. The test materials were administered intraperitoneal (ip) route in a volume of 10 ul/g (mice) weight in rats or mice, respectively. Pharmacological effects of the test materials were evaluated to compared test groups (n=6) with a control group (n=6). Control group was administrated vehicle, only. The peak time was determined by administration of test material's random dose for 0.5, 1, 2, 4 hour. The time that the most protect was defined as a peak time and ED50 was determined by other dose administration at the peak time. Chemical (PIC) was dissolved in 0.9% saline and administered subcutaneously (s.c.) at its CD97 (convulsive dose 97%), the dose of Chemical (PIC) that produced clonic seizures in 97% into a loose fold of skin in the midline of the neck in a volume of 10 ul/g (mice) body weight. The animals were then transferred to observation cages and observed continuously for 45 min. Clonic seizure was elicited in approximately 97% of control group. Protection was defined as a complete absence of clonic seizure over the 45-min observation period. The effective dose of compound necessary to protect against generalized convulsive seizures to 50% of controls (i.e., ED50) was determined by log probit analysis using SPSS software program (SPSS Inc.). (Reference; White H. S., J. H. Woodhead, K. S. Wilcox, J. P. Stables, H. J. Kupferberg, and H. H. Wolf. General Principles; Discovery and Preclinical Development of Antiepileptic Drugs. In: R. H. Levy, R. H. Mattson, B. S. Meldrum, and E. Perucca, eds. Antiepileptic Drugs, 5th Ed. Lippincott Williams & Wilkins, Philadelphia 2002: pp. 36-48.) The obtained results are shown in following Table 10.

SMILES | ED50 (SNL model in rats; Rattus norvegicus, po, von Frey threshold relative to sham) [mg/kg] | ED50 [1] [mg/kg] | ED50 ([2]; Mus musculus, ip, read-out: PIC(ip) ED50) [mg/kg] | SNL efficacy % (SNL model in rats; dose 30 mg/kg) | PIC(ip) efficacy % ([2]; mice, dose 120 mg/kg)
NC(=O)O[C@@H]1CCc2cccc(Cl)c2[C@@H]1O [Example 1, (1S, 2R)-8-chloro-1-hydroxy-1,2,3,4-tetrahydronaphthalen-2-yl carbamate] | 35.5 | 5.9 | 23.7 |  | 
NC(=O)O[C@@H]1c2c(Cl)cccc2CC[C@@H]1O [Example 19, (1R, 2S)-8-chloro-2-hydroxy-1,2,3,4-tetrahydronaphthalen-1-yl carbamate] |  | 4.6 |  | 30(17.8%) | 120 (16.6%)

Source: patent US11168052B2, “Carbamate derivative compounds, processes for preparing them and their uses” (BIO-PHARM SOLUTIONS CO., LTD., priority 2016, dated 2021)
